# Values of other authors as cited in EP1382610A2, “Conductive metal-containing nucleic acids” (The University of Saskatchewan, priority 1997, dated 1999).
# Settings: imino protons
row,SMILES,pKa
1,"Cc1c[nH]c(=O)[nH]c1=O [T, thymine]",9.9
2,"Nc1nc2nc[nH]c2c(=O)[nH]1 [G, guanine]",9.4
